Assays:
Assay in all cases: stopped-flow CO2 hydrase assay
Type in all cases: biochemical
hCA II = biological target: T1, hCA II (Homo sapiens, UniProt P00918)
T1 construct: gene CA2; recombinant, obtained as reported earlier; cytosolic isoform
Text: stopped-flow CO2 hydrase assay on hCA II

hCA IX = biological target: T2, hCA IX (Homo sapiens, UniProt Q16790)
T2 construct: gene CA9; recombinant, obtained as reported earlier
Text: stopped-flow CO2 hydrase assay on hCA IX

hCA VII = biological target: T3, hCA VII (Homo sapiens, UniProt P43166)
T3 construct: gene CA7; recombinant, obtained as reported earlier; cytosolic isoform
T3 sequence (P43166 whole entry, canonical isoform): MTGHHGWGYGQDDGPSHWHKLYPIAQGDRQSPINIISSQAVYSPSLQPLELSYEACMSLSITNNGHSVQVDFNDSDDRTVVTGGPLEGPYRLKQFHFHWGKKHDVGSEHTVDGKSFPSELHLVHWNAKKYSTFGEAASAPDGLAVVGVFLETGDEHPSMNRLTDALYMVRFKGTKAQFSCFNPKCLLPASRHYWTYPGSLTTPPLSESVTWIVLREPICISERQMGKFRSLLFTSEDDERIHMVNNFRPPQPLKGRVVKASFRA
Text: stopped-flow CO2 hydrase assay on hCA VII

hCA I = biological target: T4, hCA I (Homo sapiens, UniProt P00915)
T4 construct: gene CA1; recombinant, obtained as reported earlier; cytosolic isoform
T4 sequence (P00915 2-261): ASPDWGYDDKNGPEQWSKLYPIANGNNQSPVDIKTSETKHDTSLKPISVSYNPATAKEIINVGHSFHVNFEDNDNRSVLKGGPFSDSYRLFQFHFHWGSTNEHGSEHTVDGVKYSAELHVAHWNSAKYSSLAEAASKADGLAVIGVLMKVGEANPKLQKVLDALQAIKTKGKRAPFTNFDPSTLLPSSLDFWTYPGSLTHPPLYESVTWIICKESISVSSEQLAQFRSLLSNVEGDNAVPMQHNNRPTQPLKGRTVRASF
Text: stopped-flow CO2 hydrase assay on hCA I

Compound | Ki (hCA II) [nM] | Ki (hCA IX) [nM] | Ki (hCA VII) [nM] | Ki (hCA I) [nM]
COc1ccc(/N=N/Nc2cccc(S(N)(=O)=O)c2)cc1OC [4g, 3–(3-(3,4-dimethoxyphenyl)triaz-1-en-1-yl)benzenesulfonamide] | 6460 ± 310 | 84.9 ± 4.5 | 2560 ± 129 | 3850 ± 179
NS(=O)(=O)c1cccc(N=NNc2ccc(Cl)c(Cl)c2)c1 [4h, 3–(3-(3,4-dichlorophenyl)triaz-1-en-1-yl)benzenesulfonamide] | 9190 ± 504 | 9270 ± 451 | 7830 ± 418 | 8370 ± 601
CCCCOc1ccc(NN=Nc2cccc(S(N)(=O)=O)c2)cc1 [4d, 3–(3-(4-butoxyphenyl)triaz-1-en-1-yl) benzenesulfonamide] | 519 ± 39 | 7430 ± 216 | 5870 ± 314 | 618 ± 40

Now from value to compound:

Ki (hCA II) [nM] | Ki (hCA IX) [nM] | Ki (hCA VII) [nM] | Ki (hCA I) [nM] | Compound
68.7 ± 5.1 | 835 ± 47 | 967 ± 54 | 92.3 ± 7.1 | NS(=O)(=O)c1cccc(N/N=N/c2ccc(C(=O)O)cc2)c1 [4b, 4–(3-(3-sulfamoylphenyl)triaz-2-en-1-yl) benzoic acide]
877 ± 62 | 7230 ± 159 | 5760 ± 324 | 416 ± 32 | COc1ccc(/N=N/Nc2cccc(S(N)(=O)=O)c2)cc1 [4e, 3–(3-(4-methoxyphenyl)triaz-1-en-1-yl) benzenesulfonamide]
4.3 ± 0.2 | 50.8 ± 3.6 | 15.6 ± 0.9 | 277 ± 18 | Cc1cc(C)cc(NN=Nc2cccc(S(N)(=O)=O)c2)c1 [4f, 3–(3-(3,5-dimethylphenyl)triaz-1-en-1-yl)benzenesulfonamide]
858 ± 43 | 8050 ± 126 | 9480 ± 348 | 365 ± 15 | NS(=O)(=O)c1cccc(/N=N/Nc2ccc(F)cc2)c1 [4a, 3–(3-(4-fluorophenyl)triaz-1-en-1-yl) benzenesulfonamide]
605 ± 34 | 8960 ± 348 | 7900 ± 456 | 501 ± 31 | N#Cc1ccc(NN=Nc2cccc(S(N)(=O)=O)c2)cc1 [4c, 3–(3-(4-cyanophenyl)triaz-1-en-1-yl) benzenesulfonamide]

Source: article PMC6179046, “Discovery of novel 1,3-diaryltriazene sulfonamides as carbonic anhydrase I, II, VII, and IX inhibitors” (Journal of Enzyme Inhibition and Medicinal Chemistry, 2018)
